According to PubChem BioAssay (NCI):
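GI50 is the concentration that inhibits growth by half. Definition used: TGI = concentration required for complete inhibition of growth.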

Assays:
Assay in all cases: NCI anticancer screen, dose series, 384-well format
786-0 renal = system: 786-0 renal
A498 renal = system: A498 renal
A549 NSCLC = system: A549 NSCLC
ACHN renal = system: ACHN renal
BT-549 breast = system: BT-549 breast
CAKI-1 renal = system: CAKI-1 renal
CCRF-CEM leukemia = system: CCRF-CEM leukemia
COLO 205 colon = system: COLO 205 colon
DU-145 prostate = system: DU-145 prostate
EKVX NSCLC = system: EKVX NSCLC
HCC-2998 colon = system: HCC-2998 colon
HCT-116 colon = system: HCT-116 colon
HCT-15 colon = system: HCT-15 colon
HL-60(TB) leukemia = system: HL-60(TB) leukemia
HOP-62 NSCLC = system: HOP-62 NSCLC
HOP-92 NSCLC = system: HOP-92 NSCLC
HS 578T breast = system: HS 578T breast
IGROV1 ovarian = system: IGROV1 ovarian
K-562 leukemia = system: K-562 leukemia
KM12 colon = system: KM12 colon
LOX IMVI melanoma = system: LOX IMVI melanoma
M14 melanoma = system: M14 melanoma
MALME-3M melanoma = system: MALME-3M melanoma
MCF7 breast = system: MCF7 breast
MDA-MB-231 breast = system: MDA-MB-231 breast
MDA-MB-435 melanoma = system: MDA-MB-435 melanoma
MDA-MB-468 breast = system: MDA-MB-468 breast
MOLT-4 leukemia = system: MOLT-4 leukemia
NCI-H226 lung = system: NCI-H226 lung
NCI-H23 lung = system: NCI-H23 lung
NCI-H322M lung = system: NCI-H322M lung
NCI-H460 NSCLC = system: NCI-H460 NSCLC
NCI-H522 lung = system: NCI-H522 lung
NCI/ADR-RES ovarian = system: NCI/ADR-RES ovarian
OVCAR-3 ovarian = system: OVCAR-3 ovarian
OVCAR-4 ovarian = system: OVCAR-4 ovarian
OVCAR-5 ovarian = system: OVCAR-5 ovarian
OVCAR-8 ovarian = system: OVCAR-8 ovarian
PC-3 prostate = system: PC-3 prostate
RPMI-8226 leukemia = system: RPMI-8226 leukemia
RXF 393 renal = system: RXF 393 renal
SF-268 CNS = system: SF-268 CNS
SF-295 CNS = system: SF-295 CNS
SF-539 CNS = system: SF-539 CNS
SK-MEL-2 melanoma = system: SK-MEL-2 melanoma
SK-MEL-28 melanoma = system: SK-MEL-28 melanoma
SK-MEL-5 melanoma = system: SK-MEL-5 melanoma
SK-OV-3 ovarian = system: SK-OV-3 ovarian
SN12C renal = system: SN12C renal
SNB-19 CNS = system: SNB-19 CNS
SNB-75 CNS = system: SNB-75 CNS
SR leukemia = system: SR leukemia
SW-620 colon = system: SW-620 colon
T-47D breast = system: T-47D breast
TK-10 renal = system: TK-10 renal
U251 glioblastoma = system: U251 glioblastoma
UACC-257 melanoma = system: UACC-257 melanoma
UACC-62 melanoma = system: UACC-62 melanoma
UO-31 renal = system: UO-31 renal

## CCN1CCN(Cc2ccc(Nc3ncc(F)c(-c4cc(F)c5nc(C)n(C(C)C)c5c4)n3)nc2)CC1
786-0 renal
  GI50: 1.27 µM
  TGI: 7.97 µM
A498 renal
  GI50: 0.312 µM
  TGI: 1.47 µM
A549 NSCLC
  GI50: 2.12 µM
  TGI: 7.52 µM
ACHN renal
  GI50: 0.39 µM
  TGI: 10.6 µM
BT-549 breast
  GI50: 0.917 µM
  TGI: 16.5 µM
CAKI-1 renal
  GI50: 0.285 µM
  TGI: 14 µM
CCRF-CEM leukemia
  GI50: 0.33 µM
  TGI: 4.39 µM
COLO 205 colon
  GI50: 0.447 µM
  TGI: > 55.9 µM
DU-145 prostate
  GI50: 1.84 µM
  TGI: 9.15 µM
EKVX NSCLC
  GI50: 18 µM
  TGI: > 62 µM
HCC-2998 colon
  GI50: 4.45 µM
HCT-116 colon
  GI50: 0.392 µM
  TGI: 1.87 µM
HCT-15 colon
  GI50: 0.531 µM
  TGI: 7.24 µM
HL-60(TB) leukemia
  GI50: 0.386 µM
  TGI: 6.82 µM
HOP-62 NSCLC
  GI50: 8.44 µM
  TGI: > 56.8 µM
HOP-92 NSCLC
  GI50: > 81.8 µM
  TGI: > 100 µM
HS 578T breast
  GI50: 2.43 µM
  TGI: 19.4 µM
IGROV1 ovarian
  GI50: 4.43 µM
  TGI: > 28.1 µM
K-562 leukemia
  GI50: 1.11 µM
  TGI: 2.32 µM
KM12 colon
  GI50: 0.485 µM
  TGI: 6.5 µM
LOX IMVI melanoma
  GI50: 0.372 µM
  TGI: 7.23 µM
M14 melanoma
  GI50: 0.684 µM
  TGI: > 28 µM
MALME-3M melanoma
  GI50: 3.43 µM
  TGI: 13.6 µM
MCF7 breast
  GI50: 0.395 µM
  TGI: 6.59 µM
MDA-MB-231 breast
  GI50: 0.749 µM
MDA-MB-435 melanoma
  GI50: > 15.5 µM
  TGI: > 52.4 µM
MDA-MB-468 breast
  GI50: 1.18 µM
  TGI: > 25.7 µM
MOLT-4 leukemia
  GI50: 0.127 µM
  TGI: 0.981 µM
NCI-H226 lung
  GI50: 0.56 µM
  TGI: 23 µM
NCI-H23 lung
  GI50: 1.74 µM
  TGI: 7.68 µM
NCI-H322M lung
  GI50: 1.16 µM
  TGI: 15.2 µM
NCI-H460 NSCLC
  GI50: 0.387 µM
  TGI: 1.82 µM
NCI-H522 lung
  GI50: 9.54 µM
  TGI: > 33.1 µM
NCI/ADR-RES ovarian
  GI50: > 60.9 µM
  TGI: > 100 µM
OVCAR-3 ovarian
  GI50: 4.21 µM
  TGI: > 29.3 µM
OVCAR-4 ovarian
  TGI: > 19.6 µM
OVCAR-5 ovarian
  GI50: 0.944 µM
  TGI: > 68.3 µM
OVCAR-8 ovarian
  GI50: 24.3 µM
  TGI: > 32.4 µM
PC-3 prostate
  GI50: 1.49 µM
  TGI: > 31.9 µM
RPMI-8226 leukemia
  GI50: 1.42 µM
  TGI: 8.38 µM
RXF 393 renal
  GI50: 5.84 µM
  TGI: 11.6 µM
SF-268 CNS
  GI50: 2 µM
  TGI: 19 µM
SF-295 CNS
  GI50: 6.95 µM
  TGI: > 34.2 µM
SF-539 CNS
  GI50: 1.26 µM
  TGI: 2.53 µM
SK-MEL-2 melanoma
  GI50: 16.8 µM
  TGI: 30.5 µM
SK-MEL-28 melanoma
  GI50: 1.85 µM
  TGI: > 33.3 µM
SK-MEL-5 melanoma
  GI50: 0.26 µM
  TGI: > 23.3 µM
SK-OV-3 ovarian
  GI50: 3.31 µM
  TGI: > 32 µM
SN12C renal
  GI50: 6.7 µM
  TGI: > 32.9 µM
SNB-19 CNS
  GI50: 16 µM
  TGI: > 33.6 µM
SNB-75 CNS
  GI50: 0.708 µM
  TGI: 10.6 µM
SR leukemia
  GI50: 0.0577 µM
  TGI: 0.267 µM
SW-620 colon
  GI50: 0.366 µM
  TGI: 1.81 µM
T-47D breast
  GI50: 23.7 µM
  TGI: > 68.5 µM
TK-10 renal
  GI50: 0.803 µM
  TGI: > 27.6 µM
U251 glioblastoma
  GI50: 2.87 µM
  TGI: > 29.6 µM
UACC-257 melanoma
  GI50: 4.74 µM
  TGI: > 32.1 µM
UACC-62 melanoma
  GI50: 2.4 µM
  TGI: > 26.9 µM
UO-31 renal
  GI50: 0.362 µM
  TGI: > 19.1 µM
